Experimental findings from US20240360157A1, “TYK2 INHIBITORS” (BIOGEN MA INC., priority 2021, published 2024) are described below.

The structures appear in SMILES notation.

What all share (format): biochemical
The target of assay [1] is human JAK2 catalytic kinase (JH1) domain (Homo sapiens (Human), UniProt O60674). As to the kind of experiment: ADP-Glo Kinase Assay, recombinant JAK2 catalytic kinase (JH1) domain. The settings on record: recombinant JH1 domain 0.2 nM, 15 μM ATP, JAK3-974 peptide, mean, read-out: JAK2 biochem IC50 (nM) Mean. In a few lines:
(§1)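 ADP-Glo luminescence with 50 μM peptide and 100 min reactions: JAK1 4 nM with JAK3-342 peptide; JAK2, JAK3 and TYK2 at 0.2, 0.3 and 2 nM with JAK3-974 peptide. Compounds tested from 10 or 1 μM top, 11 points, 3-fold. IC50 from a 4-parameter logistic fit of normalized activity.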

The target of assay [2] is human TYK2 catalytic kinase (JH1) domain (Homo sapiens (Human), UniProt P29597). As to the kind of experiment: ADP-Glo Kinase Assay, recombinant TYK2 catalytic kinase (JH1) domain. As to conditions: recombinant JH1 domain 2 nM, 10 μM ATP, JAK3-974 peptide, mean, read-out: TYK2 biochem IC50 (nM) Mean. In a few lines:
as §1
On the technique in general: ADP-Glo first removes unused ATP, then detects ADP through luciferase.

Assay [3] concerns the target human JAK3 catalytic kinase (JH1) domain (Homo sapiens (Human), UniProt P52333). The assay can be described thus: ADP-Glo Kinase Assay, recombinant JAK3 catalytic kinase (JH1) domain. As to conditions: recombinant JH1 domain 0.3 nM, 4 μM ATP, JAK3-974 peptide, mean, read-out: JAK3 biochem IC50 (nM) Mean. The procedure, abridged:
as §1

Assay [4] deals with human JAK1 catalytic kinase (JH1) domain (Homo sapiens (Human), UniProt P23458). The assay can be described thus: ADP-Glo Kinase Assay, recombinant JAK1 catalytic kinase (JH1) domain. As to conditions: recombinant JH1 domain 4 nM, 35 μM ATP, JAK3-342 peptide, mean, read-out: JAK1 biochem IC50 (nM) Mean. In a few lines: as §1
human JAK1 catalytic kinase (JH1) domain, sequence (P23458 875-1153): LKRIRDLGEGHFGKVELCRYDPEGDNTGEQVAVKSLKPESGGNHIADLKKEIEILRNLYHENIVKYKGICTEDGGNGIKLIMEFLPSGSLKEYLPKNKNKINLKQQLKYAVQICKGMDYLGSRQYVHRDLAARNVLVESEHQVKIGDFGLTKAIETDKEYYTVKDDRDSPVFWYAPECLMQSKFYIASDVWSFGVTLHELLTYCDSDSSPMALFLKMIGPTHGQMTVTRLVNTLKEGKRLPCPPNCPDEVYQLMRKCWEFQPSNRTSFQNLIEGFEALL

human TYK2 catalytic kinase (JH1) domain, sequence (P29597 897-1176): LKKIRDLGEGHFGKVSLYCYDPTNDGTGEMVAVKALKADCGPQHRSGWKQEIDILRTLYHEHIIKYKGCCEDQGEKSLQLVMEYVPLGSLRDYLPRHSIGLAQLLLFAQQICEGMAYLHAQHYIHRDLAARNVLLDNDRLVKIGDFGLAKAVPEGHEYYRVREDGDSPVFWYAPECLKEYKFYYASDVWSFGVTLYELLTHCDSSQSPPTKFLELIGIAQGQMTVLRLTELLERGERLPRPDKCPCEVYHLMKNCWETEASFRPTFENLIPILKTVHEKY
human JAK2 catalytic kinase (JH1) domain, sequence (O60674 849-1124): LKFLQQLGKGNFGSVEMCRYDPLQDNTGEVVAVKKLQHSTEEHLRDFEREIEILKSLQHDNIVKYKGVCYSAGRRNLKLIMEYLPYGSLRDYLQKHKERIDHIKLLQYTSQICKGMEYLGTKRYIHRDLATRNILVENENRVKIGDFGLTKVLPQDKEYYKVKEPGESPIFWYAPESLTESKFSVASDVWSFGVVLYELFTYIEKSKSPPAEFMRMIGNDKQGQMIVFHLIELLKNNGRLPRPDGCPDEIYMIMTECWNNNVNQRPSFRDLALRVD
human JAK3 catalytic kinase (JH1) domain, sequence (P52333 822-1111): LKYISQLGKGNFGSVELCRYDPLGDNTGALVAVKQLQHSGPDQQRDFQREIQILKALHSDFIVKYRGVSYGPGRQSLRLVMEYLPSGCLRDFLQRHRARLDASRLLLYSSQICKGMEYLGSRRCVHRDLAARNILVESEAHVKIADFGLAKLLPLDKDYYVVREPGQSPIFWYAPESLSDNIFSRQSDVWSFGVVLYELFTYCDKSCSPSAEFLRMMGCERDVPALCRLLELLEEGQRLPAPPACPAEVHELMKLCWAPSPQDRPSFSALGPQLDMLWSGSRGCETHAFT

As to `Cn1cc(-c2cc3c(N4CC5CCC(C4)N5C(=O)[C@H]4C[C@@H]4C#N)ncnn3c2)cn1` (racemic) [Example 66, Rac-(1S,2S)-2-(3-(6-(1-methyl-1H-pyrazol-4-yl)pyrrolo[2,1-f][1,2,4]triazin-4-yl)-3,8-diazabicyclo[3.2.1]octane-8-carbonyl)cyclopropane-1-carbonitrile], the IC50 – broadly, the concentration that inhibits the measured activity by half – is 3610 nM in assay [1], 242 nM in assay [2], 5540 nM in assay [3] and 1510 nM in assay [4].
On to `O=C([C@@H]1C[C@H]1F)N1C2CCC1CN(c1ncnn3cc(-c4cnn(C(F)F)c4)cc13)C2` [Example 1, (3-(6-(1-(difluoromethyl)-1H-pyrazol-4-yl)pyrrolo[2,1-f][1,2,4]triazin-4-yl)-3,8-diazabicyclo[3.2.1]octan-8-yl)((1S,2R)-2-fluorocyclopropyl)methanone], for which the IC50 worked out at 315 nM in assay [1], 9 nM in assay [2], 1300 nM in assay [3] and 228 nM in assay [4].
The matching figures for `Cn1cc(-c2cc3c(N4CC5CCC(C4)N5C(=O)C4CC(F)C4)ncnn3c2)cn1` (stereo not drawn) [Example 69, (3-fluorocyclobutyl)(3-(6-(1-methyl-1H-pyrazol-4-yl)pyrrolo[2,1-f][1,2,4]triazin-4-yl)-3,8-diazabicyclo[3.2.1]octan-8-yl)methanone]: 10000 nM, 694 nM, 9720 nM and 6660 nM.
The matching figures for `Cn1cc(-c2cc3c(N4CC5CCC(C4)N5C(=O)C(F)(F)F)ncnn3c2)cn1` [Example 87, 2,2,2-trifluoro-1-(3-(6-(1-methyl-1H-pyrazol-4-yl)pyrrolo[2,1-f][1,2,4]triazin-4-yl)-3,8-diazabicyclo[3.2.1]octan-8-yl)ethan-1-one]: 4870 nM, 266 nM, 2550 nM and 1200 nM.
The matching figures for `CC1(C(=O)N2C3CCC2CN(c2ncnn4cc(-c5cnn(C(F)F)c5)cc24)C3)CCC1` [Example 52, (3-(6-(1-(difluoromethyl)-1H-pyrazol-4-yl)pyrrolo[2,1-f][1,2,4]triazin-4-yl)-3,8-diazabicyclo[3.2.1]octan-8-yl)(1-methylcyclobutyl)methanone]: 9080 nM, 425 nM, 9370 nM and 6480 nM.
On to `COc1cc(-c2cc3c(N4CC5CCC(C4)N5C(=O)[C@@H]4C[C@H]4F)ccnn3c2)ncn1` [Example 105, ((1S,2R)-2-fluorocyclopropyl)(3-(6-(6-methoxypyrimidin-4-yl)pyrrolo[1,2-b]pyridazin-4-yl)-3,8-diazabicyclo[3.2.1]octan-8-yl)methanone], for which the IC50 in assay [1] came to 190 nM; in assay [2], 28.6 nM; in assay [3] it was 6900 nM; in assay [4] it was 356 nM.
For the molecule `O=C(C1C(F)(F)C12CCC2)N1C2CCC1CN(c1ncnn3cc(-c4cnn(C(F)F)c4)cc13)C2` (stereo not drawn) [Example 7, (3-(6-(1-(difluoromethyl)-1H-pyrazol-4-yl)pyrrolo[2,1-f][1,2,4]triazin-4-yl)-3,8-diazabicyclo[3.2.1]octan-8-yl)(2,2-difluorospiro[2.3]hexan-1-yl)methanone], the IC50 was 3960 nM in assay [1], 156 nM in assay [2], 6300 nM in assay [3] and 960 nM in assay [4].
The corresponding values for `O=C([C@H]1CC1(F)F)N1C2CCC1CN(c1ncnn3cc(-c4cnn(C(F)F)c4)cc13)C2` [Example 8, ((R)-2,2-difluorocyclopropyl)(3-(6-(1-(difluoromethyl)-1H-pyrazol-4-yl)pyrrolo[2,1-f][1,2,4]triazin-4-yl)-3,8-diazabicyclo[3.2.1]octan-8-yl)methanone] are 3740 nM, 200 nM, 1690 nM and 226 nM.
The corresponding values for `O=C(C1CC1)N1C2CCC1CN(c1ncnn3cc(-c4ccc(Cl)nc4)cc13)C2` [Example 179] are 10000 nM, 684 nM, 9270 nM and 5400 nM.
`Cn1cc(-c2cc3c(N4CC5CCC(C4)N5C(=O)[C@@H]4C[C@H]4F)ccnc3[nH]2)cn1` [Example 238, ((1S,2R)-2-fluorocyclopropyl)(3-(2-(1-methyl-1H-pyrazol-4-yl)-1H-pyrrolo[2,3-b]pyridin-4-yl)-3,8-diazabicyclo[3.2.1]octan-8-yl)methanone]: the IC50 was 6 nM in assay [1], 0.1 nM in assay [2], 61 nM in assay [3] and 10 nM in assay [4].
The corresponding values for `CC(C)C(=O)N1C2CCC1CN(c1ncnn3cc(-c4cnn(C)c4)cc13)C2` [Example 58, 2-methyl-1-(3-(6-(1-methyl-1H-pyrazol-4-yl)pyrrolo[2,1-f][1,2,4]triazin-4-yl)-3,8-diazabicyclo[3.2.1]octan-8-yl)propan-1-one] are 10000 nM, 960 nM, 10000 nM and 10000 nM.
The corresponding values for `CCn1ncc(-c2cc3c(N4CC5CCC(C4)N5C(=O)C4CC4)ncnn3c2)c1F` [Example 161] are 2460 nM, 120 nM, 1230 nM and 492 nM.
`Cc1ccc(-c2cc3c(N4CC5CCC(C4)N5C(=O)[C@@H]4C[C@H]4F)ncnn3c2)cn1` [Example 92, ((1S,2R)-2-fluorocyclopropyl)(3-(6-(6-methylpyridin-3-yl)pyrrolo[2,1-f][1,2,4]triazin-4-yl)-3,8-diazabicyclo[3.2.1]octan-8-yl)methanone]: the IC50 is 1160 nM in assay [1], 42.2 nM in assay [2], 4820 nM in assay [3] and 744 nM in assay [4].
The matching figures for `COc1cc(-c2cn3nccc(N4CC5CCC(C4)N5C(=O)[C@@H]4C[C@H]4F)c3n2)ccn1` [Example 248, ((1S,2R)-2-fluorocyclopropyl)(3-(2-(2-methoxypyridin-4-yl)imidazo[1,2-b]pyridazin-8-yl)-3,8-diazabicyclo[3.2.1]octan-8-yl)methanone]: 48 nM, 9.5 nM, 515 nM and 23 nM.
With `Cc1cc(-c2cc3c(N4CC5CCC(C4)N5C(=O)C4CC4)ncnn3c2)on1` [Example 158, Cyclopropyl(3-(6-(3-methylisoxazol-5-yl)pyrrolo[2,1-f][1,2,4]triazin-4-yl)-3,8-diazabicyclo[3.2.1]octan-8-yl)methanone], the IC50 came out at 10000 nM in assay [1], 656 nM in assay [2], 10000 nM in assay [3] and 8060 nM in assay [4].
On to `COc1cc(-c2nc3c(N4CC5CCC(C4)N5C(=O)[C@@H]4C[C@H]4F)ccnc3[nH]2)ccn1` [Example 203, ((1S,2R)-2-fluorocyclopropyl)(3-(2-(2-methoxypyridin-4-yl)-3H-imidazo[4,5-b]pyridin-7-yl)-3,8-diazabicyclo[3.2.1]octan-8-yl)methanone], for which the IC50 in assay [1] turned out to be 42 nM; in assay [2] it was 7 nM; in assay [3], 578 nM; in assay [4] it was 19 nM.
Consider `Cc1cc(-c2cc3c(N4CC5CCC(C4)N5C(=O)[C@@H]4C[C@H]4F)ncnn3c2)ccn1` [Example 91, ((1S,2R)-2-fluorocyclopropyl)(3-(6-(2-methylpyridin-4-yl)pyrrolo[2,1-f][1,2,4]triazin-4-yl)-3,8-diazabicyclo[3.2.1]octan-8-yl)methanone], for which the IC50 in assay [1] was 624 nM; in assay [2], 21.8 nM; in assay [3], 4500 nM; in assay [4] it was 316 nM.
`Cn1cc(-c2cc3c(N4CC5CCC(C4)N5C(=O)C4CC4(F)F)ncnn3c2)cn1` (stereo not drawn) [Example 63, (2,2-difluorocyclopropyl)(3-(6-(1-methyl-1H-pyrazol-4-yl)pyrrolo[2,1-f][1,2,4]triazin-4-yl)-3,8-diazabicyclo[3.2.1]octan-8-yl)methanone]: the IC50 in assay [1] was determined as 3050 nM; in assay [2], 117 nM; in assay [3], 4530 nM; in assay [4], 787 nM.
On to `Cn1ncc(-c2cc3c(N4CC5CCC(C4)N5C(=O)[C@@H]4C[C@H]4F)ccnn3c2)c1F` [Example 121, (3-(6-(5-fluoro-1-methyl-1H-pyrazol-4-yl)pyrrolo[1,2-b]pyridazin-4-yl)-3,8-diazabicyclo[3.2.1]octan-8-yl)((1S,2R)-2-fluorocyclopropyl)methanone], for which the IC50 came out at 113 nM in assay [1], 4.7 nM in assay [2], 606 nM in assay [3] and 117 nM in assay [4].
The corresponding values for `O=C(C1CC1)N1C2CCC1CN(c1ncnn3cc(-c4cnn(C(F)F)c4)cc13)C2` [Example 144] are 10000 nM, 622 nM, 10000 nM and 9320 nM.
The matching figures for `O=C(C1CC1)N1C2CCC1CN(c1ccnn3cc(-c4cnn(C(F)(F)F)c4)cc13)C2` [Example 20, cyclopropyl(3-(6-(1-(trifluoromethyl)-1H-pyrazol-4-yl)pyrrolo[1,2-b]pyridazin-4-yl)-3,8-diazabicyclo[3.2.1]octan-8-yl)methanone]: 532 nM, 30.2 nM, 1860 nM and 356 nM.
